Data as given in patent US20110293676A1, “Oral Cephalotaxine Dosage Forms” (ChemGenex Pharmaceuticals, Inc., priority 2007, published 2011).

Tests used:
[1] = Observation for mortality, morbidity and adverse events in the mouse pharmacokinetic study; format: in vivo, male CD-1 mice; details: single dose 0.41 or 1.6 mg/kg p.o. or s.c., observed until 7 days after last blood collection
Procedure: Animals were observed twice daily (in the morning and in the evening) for mortality and morbidity beginning at the time of arrival from the vendor until the scheduled sacrifice 7 days after the last blood collection. Prior to dosing, each animal was removed from its cage and observed for signs of poor health and abnormal behavior. All animals were weighed prior to dosing.
No unscheduled sacrifices or deaths were recorded. Animals were sacrificed via CO2 7 days after the completion of blood draws.

[2] = Pharmacokinetic study of homoharringtonine in mice, oral vs subcutaneous, plasma HHT content; format: in vivo, male CD-1 mice; design: Tmax / t-½: unit not given here; details: for Concentration of HHT in mouse sodium heparin plasma: single dose; for BA po/sc % / Cmax / Tmax / AUC / t-½: mouse; for AUC / t-½: WINNONLIN NCA model
Procedure: To evaluate the potential for the development of an oral formulation of homoharringtonine, a pharmacokinetic study was performed in mice. Homoharringtonine was given, at 2 doses, by either oral or subcutaneous routes to male CD-1 mice. After a single administration, blood was collected from the tail vein and analyzed for homoharringtonine content. The animal dosing was performed by Murigenics (Berkeley, Calif.) and the analysis of sera was performed by PHARMout (Sunnyvale, Calif.). […] This bioavailability is considered very good.
Homoharringtonine was manufactured by Stragen for ChemGenex Pharmaceuticals. 5 mg of lyophilized homoharringtonine was provided in a glass vial and was stable at room temperature. The vehicle was 0.9% sodium chloride supplied with the test agent in a separate vial. 27 male CD-1 mice, 8-10 weeks old (Charles River Laboratories) were used for this study. 24 mice were used for dosing, and 3 mice were used as naïve controls.
On the day of the study, 5 ml of saline were added to the 5 mg vial to make a stock of 1 mg/ml HHT. The amount administered for each mouse was based on weight, using a dose volume of 4 ml/kg. The dosing administration was performed according to Table 1.
Test subjects were dosed once. The enzyme blocker was provided in two separate tubes (A & B) Immediately prior to blood collection, 20 μL each of A and B were aliquoted into a small tube (to yield 40 μL of enzyme inhibitor).
Blood from 3 naïve mice was collected for a 0 timepoint. Approximately 50 μL of whole blood per animal (n=3 mice per time point) was collected into heparinized capillary tubes. Heparanized blood was transferred into tubes containing 40 μL of enzyme inhibitor. Samples were clearly marked by PK timepoint and group. Blood was stored on ice until centrifugation. There were 6 mice treated at each dose, but blood was pooled from 3 mice per time point so that each mouse had blood collected at every other timepoint. There were the following timepoints: 0, 15 min, 30 min, 2 hr, 4 hr and 8 hr after the administration of homoharringtonine. There were three samples collected for the T=0 from naïve mice. There were 5 samples collected for each dose, corresponding to the timepoints, 15 min, 30 min, 2 hr, 4 hr and 8 hr after the administration of homoharrigntonine. There were 2 doses for each route, and 2 routes of administration, so there were a total of 20 samples collected from treated mice. Plasma tubes were spun to prepare plasma, frozen to −80° C. and shipped on dry ice to PHARMout for bioanalytical work up.
The Cmax of the oral doses was 4 and 30 ng/mL for the 410 and 1600 μg/kg oral doses, respectively.

In the case of COC(=O)C[C@](O)(CCCC(C)(C)O)C(=O)O[C@@H]1C(OC)=C[C@]23CCCN2CCc2cc4c(cc2[C@H]13)OCO4 [HHT, cephalotaxine, 4-methyl-2-hydroxy-2-(4-hydroxy-4-methylpentyl) butanediocate ester], the mortality and morbidity [1] is reported as “No mortalities or signs of morbidity were observed”, the “Concentration of HHT in mouse sodium heparin plasma” value (from here on “Concentration of HHT”) ([2]; Group 1: 0.41 mg/kg p.o., 15 min) is reported as 3.54 ng/mL and the “Concentration of HHT” value ([2]; Group 1: 0.41 mg/kg p.o., 30 min) is reported as 3.59 ng/mL. For the same compound, the “Concentration of HHT” value ([2]; Group 1: 0.41 mg/kg p.o., 60 min) was 3.85 ng/mL, the “Concentration of HHT” value ([2]; Group 1: 0.41 mg/kg p.o., 120 min) was 4.29 ng/mL and the “Concentration of HHT” value ([2]; Group 1: 0.41 mg/kg p.o., 240 min) was 1.81 ng/mL. The “Concentration of HHT” value ([2]; Group 1: 0.41 mg/kg p.o., 480 min) was 1.65 ng/mL, the “Concentration of HHT” value ([2]; Group 2: 0.41 mg/kg s.c., 15 min) was 20.4 ng/mL and the “Concentration of HHT” value ([2]; Group 2: 0.41 mg/kg s.c., 30 min) was 11.2 ng/mL. For the same compound, the “Concentration of HHT” value ([2]; Group 2: 0.41 mg/kg s.c., 60 min) was 6.20 ng/mL, the “Concentration of HHT” value ([2]; Group 2: 0.41 mg/kg s.c., 120 min) was 3.59 ng/mL and the “Concentration of HHT” value ([2]; Group 2: 0.41 mg/kg s.c., 240 min) was 2.44 ng/mL. The “Concentration of HHT” value ([2]; Group 2: 0.41 mg/kg s.c., 480 min) was “BQL (Below the quantification limit (1.00 ng/mL))”, the “Concentration of HHT” value ([2]; Group 3: 1.6 mg/kg p.o., 15 min) was 6.58 ng/mL and the “Concentration of HHT” value ([2]; Group 3: 1.6 mg/kg p.o., 30 min) was 8.87 ng/mL. For the same compound, the “Concentration of HHT” value ([2]; Group 3: 1.6 mg/kg p.o., 60 min) was 29.9 ng/mL, the “Concentration of HHT” value ([2]; Group 3: 1.6 mg/kg p.o., 120 min) was 9.18 ng/mL and the “Concentration of HHT” value ([2]; Group 3: 1.6 mg/kg p.o., 240 min) was 5.52 ng/mL. For the same compound, the “Concentration of HHT” value ([2]; Group 3: 1.6 mg/kg p.o., 480 min) was 4.19 ng/mL, the “Concentration of HHT” value ([2]; Group 4: 1.6 mg/kg s.c., 15 min) was 54.4 ng/mL and the “Concentration of HHT” value ([2]; Group 4: 1.6 mg/kg s.c., 30 min) was 15.4 ng/mL. For the same compound, the “Concentration of HHT” value ([2]; Group 4: 1.6 mg/kg s.c., 60 min) was 35.3 ng/mL, the “Concentration of HHT” value ([2]; Group 4: 1.6 mg/kg s.c., 120 min) was 6.38 ng/mL and the “Concentration of HHT” value ([2]; Group 4: 1.6 mg/kg s.c., 240 min) was 7.72 ng/mL. For the same compound, the “Concentration of HHT” value ([2]; Group 4: 1.6 mg/kg s.c., 480 min) was 3.10 ng/mL, the BA po/sc % ([2]; 410 ug/kg, oral compared with subcutaneous dosing) was 76% and the BA po/sc % ([2]; 1600 ug/kg, oral based on the subcutaneous dose) was 77%. It also gave a Cmax ([2]; po, 410 ug/kg (1.2 mg/m2)) of 4 ng/mL, a Tmax ([2]; po, 410 ug/kg (1.2 mg/m2)) of 120 and an AUC ([2]; po, 410 ug/kg (1.2 mg/m2)) of 1217 ng·min/mL. It also gave a t-½ ([2]; po, 410 ug/kg (1.2 mg/m2)) of 297, a Cmax ([2]; po, 1600 ug/kg (4.8 mg/m2)) of 30 ng/mL and a Tmax ([2]; po, 1600 ug/kg (4.8 mg/m2)) of 60. The AUC ([2]; po, 1600 ug/kg (4.8 mg/m2)) was 3966 ng·min/mL, the t-½ ([2]; po, 1600 ug/kg (4.8 mg/m2)) was 341 and the Cmax ([2]; sc, 410 ug/kg (1.2 mg/m2)) was 20 ng/mL. It also gave a Tmax ([2]; sc, 410 ug/kg (1.2 mg/m2)) of 15, an AUC ([2]; sc, 410 ug/kg (1.2 mg/m2)) of 1599 ng·min/mL and a t-½ ([2]; sc, 410 ug/kg (1.2 mg/m2)) of 215. It also gave a Cmax ([2]; sc, 1600 ug/kg (4.8 mg/m2)) of 54 ng/mL, a Tmax ([2]; sc, 1600 ug/kg (4.8 mg/m2)) of 15 and an AUC ([2]; sc, 1600 ug/kg (4.8 mg/m2)) of 5087 ng·min/mL. For the same compound, the t-½ ([2]; sc, 1600 ug/kg (4.8 mg/m2)) was 306.
